Assay results reported in patent publication US7790711B2, “Inhibitors of 11β-Hydroxysteroid Dehydrogenase” (Hoffmann-La Roche Inc., priority 2007, dated 2010).

biological target: T1, human 11betaHSD1 (Homo sapiens, UniProt P28845); assay: in vitro inhibition of 11β-HSD1 in H4IIE cells stably transfected with human 11betaHSD1 (cortisone to cortisol, ELISA); format: cell-based; settings: H4IIE cells stably transfected with full-length human 11betaHSD1 cDNA; 200 nM cortisone, 2 hours at 37° C.; cortisol by competitive ELISA
T1 construct: stably transfected with full-length human 11betaHSD1 cDNA; expressed in transfected cells
T1 sequence (P28845 whole entry): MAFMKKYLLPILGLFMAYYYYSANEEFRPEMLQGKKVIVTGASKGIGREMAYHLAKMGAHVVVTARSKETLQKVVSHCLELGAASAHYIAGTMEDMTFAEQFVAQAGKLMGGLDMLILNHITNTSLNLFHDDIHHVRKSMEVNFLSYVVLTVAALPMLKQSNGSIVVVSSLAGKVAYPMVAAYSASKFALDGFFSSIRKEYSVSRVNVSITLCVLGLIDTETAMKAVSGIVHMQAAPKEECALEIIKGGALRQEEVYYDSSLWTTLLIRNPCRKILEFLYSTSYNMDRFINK
Protocol: H4IIE cells stably transfected with full-length human 11betaHSD1 cDNA were propagated and expanded in DMEM high glucose media (Invitrogen Cat# 11995-065), supplemented with 10% FCS (Invitrogen Cat# 10082-147), 100 units/mL and 100 μg/mL pen/strep (Invitrogen Cat#15140-122), and geneticin (800 μg/mL). One day prior to assay, cells were released from flasks using trypsin/EDTA, centrifuged, and washed with plating media (DMEM high glucose, without phenol red; Invitrogen Cat# 21063-029, supplemented with 2% charcoal stripped FCS; Gemini Cat# 100-119). From a 500,000 cells/mL suspension in plating media, 200 μL of cells were seeded into each well of a 96-well coated plate (BioCoat Cat#356461) and cultured overnight at 37° C. The following day, serially diluted 11betaHSD1 inhibitor compounds dissolved in DMSO were added to DMEM with BSA (2 mg/mL final). The final DMSO concentration was 1%. Media was aspirated from plates, and compounds in media were added to each well. The plates were incubated at 37° C. for 1 hour to allow for cellular uptake of compounds. 10 μL of substrate (cortisone) was then added to each well (200 nM final concentration) and incubated for 2 hours at 37° C. Plates were then transferred to ice and 80 μL of media transferred to a 96-well plate and stored at −30° C.
Quantitation of cortisol in cell media was performed by competitive ELISA using ELISA-Light (Tropix Cat# T10206/EL100S4), anti-cortisol EIA antibody (Assay Designs, Inc. Cat#80-1148), and cortisol-enzyme conjugate (Assay Designs, Inc. Cat# 80-1147). 384-well plates (Falcon Cat#353988) were precoated with anti-mouse IgG (Sigma Cat# M-1397) suspended in 0.9% NaCl (5 mg/mL), 50 μL per well, overnight at 4° C. Plates were washed with PBS, 0.1% Tween-20, then washed with PBS alone. Plates were blocked with Blocking Buffer (Tropix Cat# AI075) for 2 hours at room temperature. The plates were then washed as previously described. Assay samples were thawed, diluted 1:8 in DMEM, 2 mg/mL BSA, 1% DMSO, and 24 μL was transferred to wells of a pre-coated 384-well plate, as well as varying amounts of cortisol standard. To each well, 12 μL of cortisol-conjugate and 12 μL of anti-cortisol EIA antibody were added and incubated 2 hrs at room temperature on a orbital plate shaker. The wells were then emptied by inversion, then washed three times with 100 μL of PBS, 0.05% Tween-20, and then 2 times with 100 μL of Assay Buffer (Tropix). 60 μL of CDP-STAR (Tropix) was added to each well and incubated 10 minutes at room temperature. Chemiluminescence was measured using a Victor V Reader (Perkin Elmer). Cortisol in each sample was interpolated from a standard curve generated with known amounts of cortisol. IC50 values were calculated using the curve fitting software XLFit4 (IDBS).

| Compound | IC50 [nM] |
| --- | --- |
| O=C(NC1C2CC3CC(C2)CC1C3)c1cnn(-c2ccccc2)c1N1CCCC(CO)C1 (stereo not drawn) [Example 16, 5-(3-Hydroxymethyl-piperidin-1-y1)-1-phenyl-1H-pyrazole-4-carboxylic acid adamantan-2-ylamide] | 6.4 |
| O=C(NC1C2CC3CC(C2)CC1C3)c1cnn(-c2ccccc2)c1N1CCCCCC1 (stereo not drawn) [Example 14, 5-Azepan-1-y1-1-phenyl-1H-pyrazole-4-carboxylic acid adamantan-2-ylamide] | 1 |
| O=C(NC1C2CC3CC(C2)CC1C3)c1cnn(-c2ccccc2)c1NCC1CC1 (stereo not drawn) [Example 4, 5-(Cyclopropylmethyl-amino)-1-phenyl-1H-pyrazole-4-carboxylic acid adamantan-2-ylamide] | 1.9 |
| CC1CCCN1c1c(C(=O)NC2C3CC4CC(C3)CC2C4)cnn1-c1ccccc1 (stereo not drawn) [Example 8, 5-(2-Methyl-pyrrolidin-1-y1)-1-phenyl-1H-pyrazole-4-carboxylic acid adamantan-2-ylamide] | 1.3 |
| O=C(NC1C2CC3CC(C2)CC1C3)c1cnn(-c2ccccc2)c1NC1CCC1 (stereo not drawn) [Example 6, 5-Cyclobutylamino-1-phenyl-1H-pyrazole-4-carboxylic acid adamantan-2-ylamide] | 7.6 |
| O=C(NC1C2CC3CC(C2)CC1C3)c1cnn(-c2ccccc2)c1NCCCCO (stereo not drawn) [Example 24, 5-(4-Hydroxy-butylamino)-1-phenyl-1H-pyrazole-4-carboxylic acid adamantan-2-ylamide] | 7.5 |
| O=C(NC1C2CC3CC(C2)CC1C3)c1cnn(-c2ccccc2)c1N1CCCC(O)C1 (stereo not drawn) [Example 19, 5-(3-Hydroxy-piperidin-1-y1)-1-phenyl-1H-pyrazole-4-carboxylic acid adamantan-2-ylamide] | 9.2 |
| CC1CN(c2c(C(=O)NC3C4CC5CC(C4)CC3C5)cnn2-c2ccccc2)CC(C)O1 (stereo not drawn) [Example 12, 5-(2,6-Dimethyl-morpholin-4-y1)-1-phenyl-1H-pyrazole-4-carboxylic acid adamantan-2-ylamide] | 3.7 |
| O=C(NC1C2CC3CC(C2)CC1C3)c1cnn(-c2ccccc2)c1N1CCCC1 (stereo not drawn) [Example 13, 1-Phenyl-5-pyrrolidin-1-y1-1H-pyrazole-4-carboxylic acid adamantan-2-ylamide] | 0.55 |
| CC1CCC(C)N1c1c(C(=O)NC2C3CC4CC(C3)CC2C4)cnn1-c1ccccc1 (stereo not drawn) [Example 7, 5-(2,5-Dimethyl-pyrrolidin-1-y1)-1-phenyl-1H-pyrazole-4-carboxylic acid adamantan-2-ylamide] | 4 |
| O=C(NC1C2CC3CC(C2)CC1C3)c1cnn(-c2ccccc2)c1N1CCC(O)C1 (stereo not drawn) [Example 20, 5-(3-Hydroxy-pyrrolidin-1-y1)-1-phenyl-1H-pyrazole-4-carboxylic acid adamantan-2-ylamide] | 13 |
| O=C(NC1C2CC3CC(C2)CC1C3)c1cnn(-c2ccccc2)c1N1CCC(O)CC1 (stereo not drawn) [Example 18, 5-(4-Hydroxy-piperidin-1-y1)-1-phenyl-1H-pyrazole-4-carboxylic acid adamantan-2-ylamide] | 3 |
| O=C(NC1C2CC3CC(C2)CC1C3)c1cnn(-c2ccccc2)c1NC1CCCCC1 (stereo not drawn) [Example 5, 5-Cyclohexylamino-1-phenyl-1H-pyrazole-4-carboxylic acid adamantan-2-ylamide] | 4.7 |
| O=C(NC1C2CC3CC(C2)CC1C3)c1cnn(-c2ccccc2)c1NCC1CCCO1 (stereo not drawn) [Example 25, 1-Phenyl-5-[(tetrahydro-furan-2-ylmethyl)-amino]-1H-pyrazole-4-carboxylic acid adamantan-2-ylamide] | 2 |
| CC1CCCN(c2c(C(=O)NC3C4CC5CC(C4)CC3C5)cnn2-c2ccccc2)C1 (stereo not drawn) [Example 9, 5-(3-Methyl-piperidin-1-y1)-1-phenyl-1H-pyrazole-4-carboxylic acid adamantan-2-ylamide] | 3 |
| O=C(NC1C2CC3CC(C2)CC1C3)c1cnn(-c2ccccc2)c1N1CCC[C@H]1CO (stereo partly drawn) [Example 17, 5-((S)-2-Hydroxymethyl-pyrrolidin-1-y1)-1-phenyl-1H-pyrazole-4-carboxylic acid adamantan-2-ylamide] | 42 |
| O=C(NC1C2CC3CC(C2)CC1C3)c1cnn(-c2ccccc2)c1N1CCOCC1 (stereo not drawn) [Example 15, 5-Morpholin-4-y1-1-phenyl-1H-pyrazole-4-carboxylic acid adamantan-2-ylamide] | 3 |

More lines, now with the values ahead:

| IC50 [nM] | Compound |
| --- | --- |
| 3.7 | CN(CCc1ccccc1)c1c(C(=O)NC2C3CC4CC(C3)CC2C4)cnn1-c1ccccc1 (stereo not drawn) [Example 11, 5-(Methyl-phenethyl-amino)-1-phenyl-1H-pyrazole-4-carboxylic acid adamantan-2-ylamide] |
| 14 | CN(CCO)c1c(C(=O)NC2C3CC4CC(C3)CC2C4)cnn1-c1ccccc1 (stereo not drawn) [Example 26, 5-[(2-Hydroxy-ethyl)-methyl-amino]-1-phenyl-1H-pyrazole-4-carboxylic acid adamantan-2-ylamide] |
| 350 | O=C(NC1C2CC3CC(C2)CC1C3)c1cnn(-c2ccccc2)c1NCc1cccnc1 (stereo not drawn) [Example 3, 1-Phenyl-5-[(pyridin-3-ylmethyl)-amino]-1H-pyrazole-4-carboxylic acid adamantan-2-ylamide] |
| 1.3 | CC(C)Nc1c(C(=O)NC2C3CC4CC(C3)CC2C4)cnn1-c1ccccc1 (stereo not drawn) [Example 1, 5-Isopropylamino-1-phenyl-1H-pyrazole-4-carboxylic acid adamantan-2-ylamide] |
| 9.1 | CN(Cc1ccccc1)c1c(C(=O)NC2C3CC4CC(C3)CC2C4)cnn1-c1ccccc1 (stereo not drawn) [Example 10, 5-(Benzyl-methyl-amino)-1-phenyl-1H-pyrazole-4-carboxylic acid adamantan-2-ylamide] |
| 14 | O=C(NC1C2CC3CC(C2)CC1C3)c1cnn(-c2ccccc2)c1NCc1ccccc1 (stereo not drawn) [Example 2, 5-Benzylamino-1-phenyl-1H-pyrazole-4-carboxylic acid adamantan-2-ylamide] |
| 21 | O=C(NC1C2CC3CC(C2)CC1C3)c1cnn(-c2ccccc2)c1NCCO (stereo not drawn) [Example 22, 5-(2-Hydroxy-ethylamino)-1-phenyl-1H-pyrazole-4-carboxylic acid adamantan-2-ylamide] |
| 41 | CC(O)CNc1c(C(=O)NC2C3CC4CC(C3)CC2C4)cnn1-c1ccccc1 (stereo not drawn) [Example 21, 5-(2-Hydroxy-propylamino)-1-phenyl-1H-pyrazole-4-carboxylic acid adamantan-2-ylamide] |
| 55 | O=C(NC1C2CC3CC(C2)CC1C3)c1cnn(-c2ccccc2)c1NCCCO (stereo not drawn) [Example 23, 5-(3-Hydroxy-propylamino)-1-phenyl-1H-pyrazole-4-carboxylic acid adamantan-2-ylamide] |
| 1.4 | COCCCNc1c(C(=O)NC2C3CC4CC(C3)CC2C4)cnn1-c1ccccc1 (stereo not drawn) [Example 27, 5-(3-Methoxy-propylamino)-1-phenyl-1H-pyrazole-4-carboxylic acid adamantan-2-ylamide] |
